This is an account of results in patent US20250276964A1 (Novartis AG, priority 2021, published 2025).

Assay [1] deals with T1, WIZ (Homo sapiens, UniProt O95785+Q96SW2).
T1 construct: expressed in transfected cells
The assay can be described thus: Quantification of WIZ protein levels in HiBit tag fusion protein assay (WIZ HiBit assay in 293T cells). Format: cell-based. As to conditions: for Dmax at 25 µM / remaining activity at 25 µM: HEK-293T; for Dmax at 25 µM: 100 minus Amax at 25 uM, read-out: % degradation of WIZ (100-Amax); for remaining activity at 25 µM: DMSO-normalized, curve-fitted percentage of WIZ-HiBit remaining at 25 uM, read-out: WIZ Amax; for DC50: WIZ HiBit assay in 293T cells, 10-point, 5-fold dilution, highest concentration 25 μM, about 18 hours, read-out: WIZ AC50. The essentials:
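293T cells stably carrying single-copy HiBit-WIZ (HSVTK promoter) treated ~18 h at 37 °C with 10-point, 5-fold dilutions, top 25 μM. Lytic HiBit luminescence read; Amax is DMSO-normalised, curve-fitted % WIZ-HiBit remaining at 25 uM.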
A general note: HiBiT is a short tag that completes a luciferase, so light tracks the accessible tagged protein.

Assay [2] relates to Fetal Hemoglobin (HbF). As to the kind of experiment: Small molecule HbF induction assay (erythroid differentiated mPB CD34+ cells, flow cytometry). Format: cell-based, human. The settings on record: for EC50: Homo sapiens, mPB CD34+ cells expanded 6 days, erythroid differentiated with compound 7 days, 7-point, 1:3 dilution from 30 uM; for HbF Amax: highest percentage of cells staining positive for HbF (% HbF+ cells) in the fitted dose-response curve, DMSO baseline approximately 30-40%. As to the method: Cryopreserved primary human CD34^+ hematopoietic stem and progenitor cells were obtained from AllCells, LLC. The CD34^+ cells were isolated from the peripheral blood of healthy donors after mobilization by administration of granulocyte colony-stimulating factor. Cells were differentiated ex vivo toward the erythroid lineage using a 2-phase culture method. In the first phase, cells were cultured in StemSpan™ Serum-Free Expansion Media (SFEM) ([…] Technologies Inc.) supplemented with rhSCF (50 ng/mL, Peprotech®, Inc.), rhIL-6 (50 ng/mL, Peprotech®, Inc.), rhIL-3 (50 ng/mL, Peprotech®, Inc.), and rhFlt3L (50 ng/mL, Peprotech®, Inc.), and 1× antibiotic-antimycotic (Life Technologies, Thermo Fisher Scientific) for 6 days at 37° C. with 5% CO2. During the second phase, cells were cultured in erythroid differentiation media at 5,000 cells/mL in the presence of compound for 7 days at 37° C. with 5% CO2. Erythroid Differentiation Media is comprised of IMDM (Life Technologies) supplemented with insulin (10 μg/mL, Sigma Aldrich), heparin (2 U/mL Sigma Aldrich), holo-transferrin (330 μg/mL, Sigma Aldrich), human serum AB (5%, Sigma Aldrich), hydrocortisone (1 μM, […] Technologies), rhSCF (100 ng/mL, Peprotech®, Inc.), rhIL-3 (5 ng/mL, Peprotech®, Inc.), rhEPO (3 U/mL, Peprotech®, Inc.), and 1× antibiotic-antimycotic. All compounds were dissolved and diluted into dimethylsulfoxide (DMSO) and were added to culture media for a final concentration of 0.3% DMSO for testing in a 7-point, 1:3 dilution series starting at 30 uM.
For viability analysis, samples were washed and resuspended in phosphate-buffered saline (PBS) and stained with LIVE/DEAD™ Fixable Violet Dead Cell Stain Kit (Life Technologies, L34963) for 20 minutes. Cells were then washed again with PBS and resuspended in PBS supplemented with 2% fetal bovine serum (FBS), and 2 mM EDTA to prepare for cell surface marker analysis. Cells were labeled with allophycocyanin-conjugated CD235a (1:100, BD Biosciences, 551336) and Brilliant Violet-conjugated CD71 (1:100, BD Biosciences, 563767) antibodies for 20 minutes. For analysis of cytoplasmic Fetal Hemoglobin (HbF), cells were fixed and permeabilized using the Fixation (BioLegend®, 420801) and Permeabilization Wash (BioLegend®, 421002) Buffers according to the manufacturer's protocol. During the permeabilization step, cells were stained with phycoerythrin-conjugated or FITC-conjugated HbF-specific antibody (1:10-1:25, Invitrogen™, MHFH04-4) for 30 minutes. Stained cells were washed with phosphate-buffered saline before analysis on the FACSCanto™ I1 flow cytometer or LSRFortessa™ (BD Biosciences). […]
mPB CD34+ cells were expanded for 6 days, then erythroid differentiated in the presence of compound for 7 days. Cells were fixed, stained and analyzed by flow cytometry. […]
On the technique in general: Flow cytometry measures light scatter and fluorescence of single cells or particles in a stream.

The structures appear in SMILES notation.

T1 sequence (O95785 whole entry): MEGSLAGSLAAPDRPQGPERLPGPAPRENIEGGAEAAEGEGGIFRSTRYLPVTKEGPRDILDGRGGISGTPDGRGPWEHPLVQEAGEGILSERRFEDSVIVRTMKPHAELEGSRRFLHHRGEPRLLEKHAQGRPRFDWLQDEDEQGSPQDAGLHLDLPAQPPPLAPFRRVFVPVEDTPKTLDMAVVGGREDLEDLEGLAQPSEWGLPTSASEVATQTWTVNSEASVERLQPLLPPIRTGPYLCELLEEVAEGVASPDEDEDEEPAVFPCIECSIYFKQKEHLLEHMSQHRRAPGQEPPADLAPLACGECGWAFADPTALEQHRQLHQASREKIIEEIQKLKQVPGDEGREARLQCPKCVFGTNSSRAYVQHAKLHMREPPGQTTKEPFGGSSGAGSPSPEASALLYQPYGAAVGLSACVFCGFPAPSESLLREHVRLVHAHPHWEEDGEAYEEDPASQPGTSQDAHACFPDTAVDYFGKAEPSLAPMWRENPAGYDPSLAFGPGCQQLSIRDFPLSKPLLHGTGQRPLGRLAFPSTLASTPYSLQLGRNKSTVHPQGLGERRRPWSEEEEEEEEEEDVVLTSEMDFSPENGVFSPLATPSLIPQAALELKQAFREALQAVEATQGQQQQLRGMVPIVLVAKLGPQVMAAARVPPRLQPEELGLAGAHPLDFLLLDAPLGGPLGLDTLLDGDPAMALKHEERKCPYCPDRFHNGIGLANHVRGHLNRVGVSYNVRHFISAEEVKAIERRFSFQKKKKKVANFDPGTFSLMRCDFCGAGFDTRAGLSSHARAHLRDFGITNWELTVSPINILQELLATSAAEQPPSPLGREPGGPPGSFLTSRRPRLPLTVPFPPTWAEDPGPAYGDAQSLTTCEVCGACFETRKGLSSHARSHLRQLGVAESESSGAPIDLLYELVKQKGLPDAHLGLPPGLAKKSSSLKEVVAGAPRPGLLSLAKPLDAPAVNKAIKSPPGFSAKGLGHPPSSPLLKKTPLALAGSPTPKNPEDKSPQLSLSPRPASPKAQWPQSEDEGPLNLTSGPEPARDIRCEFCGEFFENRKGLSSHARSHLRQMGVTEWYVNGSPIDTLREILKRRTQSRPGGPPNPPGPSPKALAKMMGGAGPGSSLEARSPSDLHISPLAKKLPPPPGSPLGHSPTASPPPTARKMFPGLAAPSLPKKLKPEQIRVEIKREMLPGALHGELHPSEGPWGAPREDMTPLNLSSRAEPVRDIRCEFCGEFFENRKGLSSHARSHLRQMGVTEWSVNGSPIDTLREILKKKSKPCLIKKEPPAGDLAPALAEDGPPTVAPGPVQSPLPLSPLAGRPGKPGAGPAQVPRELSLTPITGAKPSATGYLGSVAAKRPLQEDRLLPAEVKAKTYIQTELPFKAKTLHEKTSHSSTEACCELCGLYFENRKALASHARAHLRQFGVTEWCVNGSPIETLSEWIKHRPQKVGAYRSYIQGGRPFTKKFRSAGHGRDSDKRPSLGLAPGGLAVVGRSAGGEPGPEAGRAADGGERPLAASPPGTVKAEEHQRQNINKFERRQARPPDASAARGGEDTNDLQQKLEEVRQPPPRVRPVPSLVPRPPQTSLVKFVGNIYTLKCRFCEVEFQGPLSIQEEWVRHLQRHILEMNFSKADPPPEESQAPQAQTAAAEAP
T1 sequence (Q96SW2 whole entry): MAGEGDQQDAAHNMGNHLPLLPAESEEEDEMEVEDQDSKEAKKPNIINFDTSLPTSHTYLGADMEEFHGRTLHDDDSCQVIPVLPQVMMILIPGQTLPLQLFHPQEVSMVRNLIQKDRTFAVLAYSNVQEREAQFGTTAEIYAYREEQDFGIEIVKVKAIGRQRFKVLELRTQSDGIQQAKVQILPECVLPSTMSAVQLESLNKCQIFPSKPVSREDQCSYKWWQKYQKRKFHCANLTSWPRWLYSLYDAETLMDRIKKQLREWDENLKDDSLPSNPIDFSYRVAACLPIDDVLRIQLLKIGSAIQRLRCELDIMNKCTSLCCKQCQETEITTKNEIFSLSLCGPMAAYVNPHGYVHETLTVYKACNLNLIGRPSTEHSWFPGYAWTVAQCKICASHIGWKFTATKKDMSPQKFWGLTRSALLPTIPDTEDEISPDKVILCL
T1 sequence (Q16531 whole entry partner): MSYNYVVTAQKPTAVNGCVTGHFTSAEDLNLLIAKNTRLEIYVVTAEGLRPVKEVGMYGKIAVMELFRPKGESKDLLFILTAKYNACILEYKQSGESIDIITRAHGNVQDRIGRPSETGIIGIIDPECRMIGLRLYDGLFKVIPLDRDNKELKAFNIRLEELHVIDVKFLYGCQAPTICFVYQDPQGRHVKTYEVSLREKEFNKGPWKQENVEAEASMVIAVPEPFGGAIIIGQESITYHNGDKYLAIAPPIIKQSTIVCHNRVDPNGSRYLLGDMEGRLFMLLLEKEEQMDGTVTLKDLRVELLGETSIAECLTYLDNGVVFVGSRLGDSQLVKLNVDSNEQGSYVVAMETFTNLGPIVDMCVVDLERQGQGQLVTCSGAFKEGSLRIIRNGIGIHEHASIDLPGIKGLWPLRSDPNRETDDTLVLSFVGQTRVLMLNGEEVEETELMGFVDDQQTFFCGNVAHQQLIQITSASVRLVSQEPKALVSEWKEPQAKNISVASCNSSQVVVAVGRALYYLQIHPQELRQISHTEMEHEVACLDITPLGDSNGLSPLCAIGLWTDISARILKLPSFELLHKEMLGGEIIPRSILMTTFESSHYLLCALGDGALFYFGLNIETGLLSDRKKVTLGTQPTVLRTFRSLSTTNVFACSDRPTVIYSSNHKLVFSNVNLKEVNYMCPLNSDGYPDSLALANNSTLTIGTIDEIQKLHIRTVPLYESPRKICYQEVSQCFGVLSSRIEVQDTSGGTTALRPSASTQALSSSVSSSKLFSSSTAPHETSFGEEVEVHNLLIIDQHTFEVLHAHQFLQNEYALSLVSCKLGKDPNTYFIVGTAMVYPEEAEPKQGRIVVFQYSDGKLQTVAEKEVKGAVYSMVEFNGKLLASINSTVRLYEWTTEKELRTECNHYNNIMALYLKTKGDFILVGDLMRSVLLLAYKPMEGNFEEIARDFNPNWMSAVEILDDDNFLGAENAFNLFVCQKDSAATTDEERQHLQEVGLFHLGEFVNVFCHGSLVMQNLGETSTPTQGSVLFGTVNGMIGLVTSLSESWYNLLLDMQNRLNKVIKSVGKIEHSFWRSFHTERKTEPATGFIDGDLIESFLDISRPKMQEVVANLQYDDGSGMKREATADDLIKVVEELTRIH

In general, EC50 refers to the concentration giving half of the maximal effect. `C[C@H]1CN(Cc2ccc3onc(N4CCC(=O)NC4=O)c3c2)CCN1C` [Example 29, (S)-1-(5-((3,4-dimethylpiperazin-1-yl)methyl)benzo[d]isoxazol-3-yl)dihydropyrimidine-2,4(1H,3H)-dione]: in assay [1], the Dmax at 25 µM was 89%, the remaining activity at 25 µM stood at 11% and the DC50 worked out at 6.4 nM. Besides, in assay [2], the EC50 is 45 nM and the “HbF Amax” value is 80%.

Take `C[C@@H]1CN(C)CCN1Cc1ccc2onc(N3CCC(=O)NC3=O)c2c1` [Example 65, (R)-1-(5-((2,4-dimethylpiperazin-1-yl)methyl)benzo[d]isoxazol-3-yl)dihydropyrimidine-2,4(1H,3H)-dione]: in assay [1], the Dmax at 25 µM was found to be 84%, the remaining activity at 25 µM was found to be 16% and the DC50 was 89 nM. Besides, in assay [2], the EC50 amounted to 172 nM and the “HbF Amax” value stood at 76%.

On to `CC(C)S(=O)(=O)N1CCC(Cc2ccc3onc(N4CCC(=O)NC4=O)c3c2)CC1` [Example 14, 1-(5-((1-(isopropylsulfonyl)piperidin-4-yl)methyl)benzo[d]isoxazol-3-yl)dihydropyrimidine-2,4(1H,3H)-dione], for which, in assay [1], the Dmax at 25 µM came to 90%, the remaining activity at 25 µM stood at 10% and the DC50 amounted to 14 nM.

For the molecule `CC(C)S(=O)(=O)N1CCN(Cc2ccc3onc(N4CCC(=O)NC4=O)c3c2)CC1` [Example 84, 1-(5-((4-(isopropylsulfonyl)piperazin-1-yl)methyl)benzo[d]isoxazol-3-yl)dihydropyrimidine-2,4(1H,3H)-dione], in assay [1], the Dmax at 25 µM is 82%, the remaining activity at 25 µM is 18% and the DC50 is 145 nM.
